From PubChem BioAssay (NCI)
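Test compounds were applied to cells in 96-well plates for 48 hours at 5 doses. Definition used: TGI = concentration required for complete inhibition of growth.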

Experiments:
Assay in all cases: NCI-60 cell line screen, 48 h
HCT-116 colon = tested on: HCT-116 colon
OVCAR-3 ovarian = tested on: OVCAR-3 ovarian
HOP-62 NSCLC = tested on: HOP-62 NSCLC
MCF7 breast = tested on: MCF7 breast
OVCAR-8 ovarian = tested on: OVCAR-8 ovarian
SN12C renal = tested on: SN12C renal
UACC-257 melanoma = tested on: UACC-257 melanoma
UACC-62 melanoma = tested on: UACC-62 melanoma
OVCAR-5 ovarian = tested on: OVCAR-5 ovarian
K-562 leukemia = tested on: K-562 leukemia
SR leukemia = tested on: SR leukemia
NCI-H23 lung = tested on: NCI-H23 lung
KM12 colon = tested on: KM12 colon
SF-295 CNS = tested on: SF-295 CNS
HS 578T breast = tested on: HS 578T breast
HL-60(TB) leukemia = tested on: HL-60(TB) leukemia
ACHN renal = tested on: ACHN renal
NCI/ADR-RES ovarian = tested on: NCI/ADR-RES ovarian
SF-268 CNS = tested on: SF-268 CNS
COLO 205 colon = tested on: COLO 205 colon
MDA-MB-435 = tested on: MDA-MB-435
TK-10 renal = tested on: TK-10 renal
RXF 393 renal = tested on: RXF 393 renal
NCI-H226 lung = tested on: NCI-H226 lung
RPMI-8226 leukemia = tested on: RPMI-8226 leukemia
T-47D breast = tested on: T-47D breast
CCRF-CEM leukemia = tested on: CCRF-CEM leukemia
DU-145 prostate = tested on: DU-145 prostate
NCI-H522 lung = tested on: NCI-H522 lung
HT29 colon = tested on: HT29 colon
SNB-75 CNS = tested on: SNB-75 CNS
MALME-3M melanoma = tested on: MALME-3M melanoma
MDA-N = tested on: MDA-N
UO-31 renal = tested on: UO-31 renal
CAKI-1 renal = tested on: CAKI-1 renal
IGROV1 ovarian = tested on: IGROV1 ovarian
SK-MEL-5 melanoma = tested on: SK-MEL-5 melanoma
MDA-MB-231 breast = tested on: MDA-MB-231 breast
PC-3 prostate = tested on: PC-3 prostate
786-0 renal = tested on: 786-0 renal
HCT-15 colon = tested on: HCT-15 colon
M14 melanoma = tested on: M14 melanoma
EKVX NSCLC = tested on: EKVX NSCLC
BT-549 breast = tested on: BT-549 breast
U251 CNS = tested on: U251 CNS
OVCAR-4 ovarian = tested on: OVCAR-4 ovarian
SK-MEL-28 melanoma = tested on: SK-MEL-28 melanoma
MOLT-4 leukemia = tested on: MOLT-4 leukemia
NCI-H460 lung = tested on: NCI-H460 lung
SNB-19 CNS = tested on: SNB-19 CNS
SK-OV-3 ovarian = tested on: SK-OV-3 ovarian
A549 NSCLC = tested on: A549 NSCLC
SK-MEL-2 melanoma = tested on: SK-MEL-2 melanoma
SW-620 colon = tested on: SW-620 colon
LOX IMVI melanoma = tested on: LOX IMVI melanoma
A498 renal = tested on: A498 renal
SF-539 CNS = tested on: SF-539 CNS
HCC-2998 colon = tested on: HCC-2998 colon

`COc1cccc2c1OC(c1cccc3ccccc13)C([N+](=O)[O-])=C2` (stereo unspecified) was tested. Which TGI (HCT-116 colon) did it give?
The TGI was 2.45 µM.

What about the TGI (OVCAR-3 ovarian) of the same molecule?
The TGI was 2.74 µM.

What about the TGI (HOP-62 NSCLC) of the same molecule?
Its TGI is 5.36 µM.

What about the TGI (MCF7 breast) of the same molecule?
Its TGI is 2.65 µM.

And the TGI (OVCAR-8 ovarian)?
Its TGI is 20.9 µM.

And the TGI (SN12C renal)?
The TGI was 11.2 µM.

And the TGI (UACC-257 melanoma)?
Its TGI is 4.42 µM.

What about the TGI (UACC-62 melanoma) of the same molecule?
Its TGI is 2.35 µM.

What about the TGI (OVCAR-5 ovarian) of the same molecule?
Its TGI is 3.62 µM.

And the TGI (K-562 leukemia)?
The TGI was 4.19 µM.

And the TGI (SR leukemia)?
Its TGI is over 100 µM.

And the TGI (NCI-H23 lung)?
The TGI was 4.29 µM.

And the TGI (KM12 colon)?
The TGI was 3.05 µM.

What about the TGI (SF-295 CNS) of the same molecule?
Its TGI is 4.56 µM.

And the TGI (HS 578T breast)?
Its TGI is 11 µM.

And the TGI (HL-60(TB) leukemia)?
The TGI was over 100 µM.

What about the TGI (ACHN renal) of the same molecule?
Its TGI is 3.02 µM.

What about the TGI (NCI/ADR-RES ovarian) of the same molecule?
Its TGI is 7.29 µM.

What about the TGI (SF-268 CNS) of the same molecule?
The TGI was 13.3 µM.

What about the TGI (COLO 205 colon) of the same molecule?
The TGI was 5.72 µM.

What about the TGI (MDA-MB-435) of the same molecule?
The TGI was 3.02 µM.

And the TGI (TK-10 renal)?
The TGI was 5.77 µM.

What about the TGI (RXF 393 renal) of the same molecule?
The TGI was 2.58 µM.

What about the TGI (NCI-H226 lung) of the same molecule?
The TGI was 4.32 µM.

What about the TGI (RPMI-8226 leukemia) of the same molecule?
Its TGI is over 100 µM.

What about the TGI (T-47D breast) of the same molecule?
The TGI was 5.69 µM.

What about the TGI (CCRF-CEM leukemia) of the same molecule?
The TGI was 2.02 µM.

What about the TGI (DU-145 prostate) of the same molecule?
The TGI was 8.9 µM.

What about the TGI (NCI-H522 lung) of the same molecule?
The TGI was 3.21 µM.

And the TGI (HT29 colon)?
Its TGI is 4.5 µM.

What about the TGI (SNB-75 CNS) of the same molecule?
The TGI was 2.65 µM.

What about the TGI (MALME-3M melanoma) of the same molecule?
Its TGI is 4.08 µM.

And the TGI (MDA-N)?
Its TGI is 10.3 µM.

What about the TGI (UO-31 renal) of the same molecule?
Its TGI is 2.75 µM.

What about the TGI (CAKI-1 renal) of the same molecule?
Its TGI is 5.02 µM.

And the TGI (IGROV1 ovarian)?
Its TGI is 7.5 µM.

What about the TGI (SK-MEL-5 melanoma) of the same molecule?
Its TGI is 2.96 µM.

And the TGI (MDA-MB-231 breast)?
The TGI was 5.01 µM.

What about the TGI (PC-3 prostate) of the same molecule?
Its TGI is 2.37 µM.

What about the TGI (786-0 renal) of the same molecule?
The TGI was 3.95 µM.

And the TGI (HCT-15 colon)?
The TGI was 3.8 µM.

And the TGI (M14 melanoma)?
The TGI was 2.77 µM.

And the TGI (EKVX NSCLC)?
The TGI was 10.5 µM.

And the TGI (BT-549 breast)?
Its TGI is 2.74 µM.

What about the TGI (U251 CNS) of the same molecule?
Its TGI is 2.9 µM.

What about the TGI (OVCAR-4 ovarian) of the same molecule?
The TGI was 13 µM.

What about the TGI (SK-MEL-28 melanoma) of the same molecule?
Its TGI is 2.87 µM.

What about the TGI (MOLT-4 leukemia) of the same molecule?
The TGI was 5.71 µM.

And the TGI (NCI-H460 lung)?
The TGI was 3.77 µM.

And the TGI (SNB-19 CNS)?
Its TGI is 3.01 µM.

And the TGI (SK-OV-3 ovarian)?
Its TGI is 9.89 µM.

What about the TGI (A549 NSCLC) of the same molecule?
Its TGI is 3.75 µM.

What does the source list for `OC(C#CCN1CCCC1)(c1ccccc1)c1ccccc1Cl` (stereo unspecified)?
TGI (HCT-116 colon): 85.2 µM; TGI (OVCAR-3 ovarian): > 100 µM; TGI (HOP-62 NSCLC): 38.7 µM; TGI (SK-MEL-2 melanoma): 61.5 µM; TGI (MCF7 breast): 32.9 µM; TGI (OVCAR-8 ovarian): > 100 µM; TGI (SW-620 colon): 39.3 µM; TGI (SN12C renal): > 100 µM; TGI (LOX IMVI melanoma): 33.4 µM; TGI (A498 renal): 66.8 µM; TGI (UACC-257 melanoma): 40.3 µM; TGI (UACC-62 melanoma): 57.5 µM; TGI (OVCAR-5 ovarian): > 100 µM; TGI (K-562 leukemia): > 100 µM; TGI (SR leukemia): > 100 µM; TGI (NCI-H23 lung): > 100 µM; TGI (KM12 colon): > 100 µM; TGI (SF-295 CNS): 45.8 µM; TGI (HS 578T breast): 73.6 µM; TGI (HL-60(TB) leukemia): 68.3 µM; TGI (ACHN renal): 71.3 µM; TGI (NCI/ADR-RES ovarian): 94.8 µM; TGI (SF-268 CNS): > 100 µM; TGI (COLO 205 colon): 25 µM; TGI (MDA-MB-435): 51.5 µM; TGI (TK-10 renal): > 100 µM; TGI (RXF 393 renal): > 100 µM; TGI (NCI-H226 lung): > 100 µM; TGI (RPMI-8226 leukemia): > 100 µM; TGI (T-47D breast): > 100 µM; TGI (CCRF-CEM leukemia): > 100 µM; TGI (DU-145 prostate): > 100 µM; TGI (NCI-H522 lung): 41.6 µM; TGI (HT29 colon): 30.1 µM; TGI (SNB-75 CNS): > 100 µM; TGI (MDA-N): 50.9 µM; TGI (SF-539 CNS): 52.4 µM; TGI (UO-31 renal): > 100 µM; TGI (HCC-2998 colon): 40.4 µM; TGI (CAKI-1 renal): 93.6 µM; TGI (IGROV1 ovarian): 73.6 µM; TGI (SK-MEL-5 melanoma): 31.5 µM; TGI (MDA-MB-231 breast): > 100 µM; TGI (PC-3 prostate): 80.2 µM; TGI (HCT-15 colon): > 100 µM; TGI (EKVX NSCLC): > 100 µM; TGI (BT-549 breast): > 100 µM; TGI (U251 CNS): 35.2 µM; TGI (OVCAR-4 ovarian): 80.7 µM; TGI (SK-MEL-28 melanoma): 32.2 µM; TGI (MOLT-4 leukemia): 91.2 µM; TGI (NCI-H460 lung): 41.5 µM; TGI (SK-OV-3 ovarian): > 100 µM; TGI (A549 NSCLC): > 100 µM
